The text below walks through data of patent US20070207191A1, “PHARMACEUTICAL COMPOSITIONS AND METHODS TO ACHIEVE AND MAINTAIN A TARGETED AND STABLE COPPER STATUS AND PREVENT AND TREAT COPPER-RELATED CENTRAL NERVOUS SYSTEM DISEASES” (priority 2006, published 2007).

The nature of data set [1]: Example 13: dissolution of ATTM capsule in artificial gastric fluid. Format: physicochemical. The method, then: FIG. 1 is a plot of the dissolution profile of an ammonium tetrathromolybdate (ATTM) capsule in gastric juice in accordance with Example 13 hereof; and
We performed a dissolution experiment using a capsule containing 20 mg of ammonium tetrathiomolybdate plus excipient. ATTM crystals used were 500 microns or smaller. […] After, 3 hours of dissolution, black particles released from the capsule were found suspended in solution. After neutralization of the gastric media to pH 9, these black particles disappeared resulting in about 10% of ATTM being recovered.
• 1. […] Conclusion: ˜90% of ATTM is destroyed in the stomach. Method: Material Studied • 1. Study was performed on R&D Pipex formulated capsule of ATTM. • 2. The ATTM was milled through a 500 micron sieve. • 3. The capsule contained ˜20 mg of ATTM and 180 mg of excipient. Dissolution Conditions • 1. Media: 1 liter of UPS artificial gastric fluid pH 2 • 2. Temp: 22° C. • 3. Paddle RPMs: 100 • 4. Dissolution time: 3 hours Procedure • 1. A #2 QualiCaps capsule available from Shionogi Europe, B.V. was mechanically dropped into media at time zero • 2. 1 ml of media was then collected at 1, 2, 4, 8, 16, 30, 45, 75, 120 and 180 min • 3. Following 3 hours of dissolution, the pH was raised to 9 using NaOH pellets. • 4. The media was paddled for 1 hour. • 5. After 1 hour a sample was collect for analysis Analysis • 1. 400 ul of collected media was diluted to 2 ml with phosphate buffer, pH 7 • 2. The solution was placed in a cuvette and scanned between 260 and 600 nm. • 3. Absorbance was measured at 367 nm. • 4. The extinction coefficient was calculated using Beer's law. • 5. The extinction coefficient of a reference sample in a capsule is 13500 cm^−1 M^−1 Conclusion: • 1. Any ATTM that dissolves in media at pH 2 is immediately destroyed. • 2. Some of the ATTM floated in the media as black specks following 3 hours of dissolution. • 3. After three hours when the pH of the solution was raised to pH 9, the color of the solution changed to an orange color. • 4. This presumably is stable ATTM that has dissolved. • 5. […]

Data set [2] is described as follows: Example 14: stability of ATTM capsules after eight weeks. To be noted: stored at RT and ambient RH. Format: physicochemical.
Data set [3] in a line: Dissolution of ATTM crystals of different size in acidic buffer (pH 2). The class given is physicochemical. The method, then: After 1 hour of incubation in acidic buffer, more than 50% of ATTM was found.
• 1. ATTM purchased from Sigma-Aldrich was sieved using a 1700 micron screen. […] ATTM crystals were ground so that no crystals were larger than 50 microns. These will be referred to as small crystals. • 3. 100 mg of each type of crystal was weighed and added to separate 1.7 ml plastic centrifuge tubes. • 4. 1 ml of buffer pH 2 was added to each tube without mixing. • 5. After 1 hour, each tube was centrifuged at 14,000 rpms for 1 minute. • 6. The supernatant was removed and analyzed for ATTM content. • 7. To the pellet of each tube was added 1 ml of phosphate buffer pH 7.4 • 8. Each solution was vortex-mixed. • 9. Each tube was centrifuged at 14,000 rpms for 1 min. • 10. The supernatant from each tube was analyzed for ATTM content. Analysis: • 1. A 1 to 100 dilution of all supernatants were made in phosphate buffer pH 7.4. • 2. 2 ml of each diluted sample were added to plastic cuvettes. • 3. Absorbance was measured at 467 nm. • 4. The extinction coefficients (EC) of ATTM for each sample were calculated.
Observations: • 1. When acid buffer was added to small crystals of ATTM, the solution turned immediately black and a sulfur odor could be detected. • 2. […] This was observed by the 1 hour incubation time point. • 3. When acid buffer was added to large crystals of ATTM, a small amount of black coloration leached from the crystal. […] Conclusions: • 1. […] In acid, un-dissolved ATTM from large crystals can be liberated with a secondary dissolution in neutral media. • 5.

For data set [4] the following is noted: infants at one month of age, supplemented 80 μg Cu/kg daily for 15 days; cited from earlier work.
The subject of another data set is free copper in the CNS. To be noted: in vivo.
In another data set the test system is neural tube defects. The note with it: adequate intake by mothers prior to pregnancy; cited from earlier work.
A short description of data set [5]: Storage stability of tetrathiomolybdate under typical atmospheric temperature and humidity. To be noted: within three months. The class given is physicochemical. From the text:
Tetrathiohiomolydates, under typical atmospheric condition of temperature and humidity are unstable and the active ingredient can undergo oxidation to molybdenum sulfoxide. Molydbdenum sulfoxide is not active as a copper binding agent and therapeutic agent for reduing body copper levels in humans. Tetrathiomolybdates can be expected to lose approximately 10% of its potency within three months if stored under such conditions.

A short description of data set [6]: Example 5: tetrathiomolybdate crystals and capsule in simulated stomach acid. Format: physicochemical. Here is the method: Large (>1000 microns) and small (<50 microns) dark orange crystals of tetrathiomolybdate are placed in a solution of a commercially available simulated stomach acid. […] The dissolution properties of the large verses small crystals are clearly distinct. To further examine the properties of a methylcellulose capsule containing 20 mg of tetrathiomolybdate and 180 mg of excipient containing a heterogenous size range (200-800 microns) of tetrathiomolybdate crystals was examined in a dissolution chamber initially containing simulated stomach acid. The gelatin capsule dissolved within 15 minutes. Tetrathiothiomolybdate recovery was assessed by UV/Visible absorption periodically over 3 hours, a time consistent with the initiation of gastric emptying and the initial phase of postprandial absorption. […] At three hours the remaining gastric juice was made alkaline by adjusting the pH to 8-9, the solution turned orange to red and was assessed by UV/V is spectroscopy to determine the recover of tetrathiothiomolybdate, which was approximately 7% of the amount in the capsule.
When the same experiment is performed with small crystals, much less than 7% of parent compound is recovered, while when the experiment is performed with large crystals much greater than 7% of parent compound is recovered.

The subject of data set [7] is intestinal absorption of copper. The note with it: cited from earlier work.
Data set [8] is described as follows: Example 6: colour stability of crushed versus lyophilized tetrathiomolybdate. Format: physicochemical. From the text: Tetrathiothiomolybdate crystals are either crushed to a powder, that is initially orange in color, or placed in water to dissolve yielding a bright orange solution, which is filtered and lyophilized, which results in a dry powder orange in color.

The conditions of data set [9]: current formulations; cited from earlier work.
For data set [10] the following is noted: oral dose of Cu^64 as copper acetate, humans; cited from earlier work.
[11] abbreviates: crystals 1700 microns or greater.
The mark [12] stands for this setting: pellet taken up in phosphate buffer pH 7.4.
Setting [13] is: pellet taken up in phosphate buffer pH 7.4, 1 to 100 dilution.
Setting [14] is: supernatant after 1 hour in buffer pH 2.
[15] abbreviates: supernatant after 1 hour in buffer pH 2, 1 to 100 dilution.
[16] abbreviates: 50 mg immediate release capsules three times per day away from meals and beverages, Wilson's disease patients.

Entries after “also recorded” stand apart in the source; their conditions may differ. Some results are limits rather than exact numbers.

For the compound `[NH4+].[NH4+].[SH-].[SH-].[S]=[Mo]=[S]` [ATTM, ammonium tetrathiomolybdate], the “ATTM recovered after neutralization of the gastric media to pH 9” value in data set [1] (after 3 hours of dissolution) is “about 10%”. The ATTM destroyed in data set [1] (artificial gastric fluid over three hours) is given as ~90%. Besides, the “ATTM recovered dissolved in the gastric dissolution medium” value in [1] (artificial gastric fluid pH 2, 22° C., up to 3 hours, crystals 500 microns or smaller) is given as “No ATTM was recovered; also recorded: No ATTM was found dissolved”. Also, the “stability after 8-Weeks” value in data set [2] is reported as “completely stable”. Moreover, in [3], the “survival of dissolved ATTM in acid media” value is “does not survive in acid media”. In addition, in data set [3] (crystals 50 microns or less), the “ATTM found after 1 hour of incubation in acidic buffer” value is reported as “no ATTM was found” and the “dissolution behaviour in acidic buffer (pH 2)” value is reported as “dissolved rapidly; also recorded: dissolves in Acid media but soon forms an insoluble precipitate”. Also, in [3] (setting [11]), the “ATTM found after 1 hour of incubation in acidic buffer” value is given as “more than 50%” and the “dissolution behaviour in acidic buffer (pH 2)” value is recorded as “dissolved slowly; also recorded: forms a black coating which seems to resist dissolution”.

Take `[NH4+].[NH4+].[SH-].[SH-].[S]=[Mo]=[S]` [Large Crystal, ammonium tetrathiomolybdate]: the “Extinction Coefficient” value is listed as 7,000 in [3] (setting [12]) and 0 in data set [3] (setting [14]). The “Absorbance at 467” value is on record as 0.310 in [3] (setting [13]) and 0 in data set [3] (setting [15]).

Regarding `[NH4+].[NH4+].[SH-].[SH-].[S]=[Mo]=[S]` [Small Crystal, ammonium tetrathiomolybdate], the “Extinction Coefficient” value in [3] (setting [12]) and in data set [3] (setting [14]) was 0 in each case. Moreover, the “Absorbance at 467” value in data set [3] (setting [13]) and in data set [3] (setting [15]) was 0 in each case.

For the compound `O=S(=O)([O-])[O-].[Cu+2]` [copper sulfate], the “Mean (+SD) copper absorption” value in data set [4] is on record as 74.8+15.2%.

For `CC(C)(S)[C@@H](N)C(=O)O` [d-pencillamine, d-penicillamine], the “levels of free copper in the CNS” value with free copper in the CNS is reported as “increase the levels of free copper in the CNS”.

As for `Nc1nc2ncc(CNc3ccc(C(=O)N[C@@H](CCC(=O)O)C(=O)O)cc3)nc2c(=O)[nH]1` [folic acid], in the data set on neural tube defects, the “reduction of the incidence of NTDs” value was “up to 70%”.

For the compound `[SH-].[SH-].[S]=[Mo]=[S]` [tetrathiomolybdate], the loss of potency entry in [5] was “approximately 10%”. The “detection in simulated gastric samples, removed and neutralized” value in data set [6] (any time point over three hours, UV/Visible absorption) was “not detectable”. In addition, the capsule dissolution time in [6] (capsule with 20 mg tetrathiomolybdate and 180 mg excipient, simulated stomach acid) is ≤ 15 min. Also, the “behaviour in simulated stomach acid” value in data set [6] (large (>1000 microns) crystals) is listed as “remain relatively intact”; in data set [6] (small (<50 microns) crystals), “form a disaggregate cloudy black solution”. Also, the “blocking of copper absorption compared with zinc” value in [7] (human, in vivo) is listed as “more effective blocker of copper absorption than zinc”. Besides, the colour stability result in data set [8] (crushed crystals, nitrogen overlay, room temperature, closed tube) is on record as “slowly turn black within a few day”; in [8] (lyophilized dry powder, similar conditions) it was “remains orange for over a month”; in data set [8] (protected from atmosphere and moisture by covering with mineral) it was “remains orange (i.e. not oxidized) for over a month”.

With `NCCNCCNCCN` [trientine], the “levels of free copper in the CNS” value with free copper in the CNS is reported as “increase the levels of free copper in the CNS”.

`CC(=O)[O-].CC(=O)[O-].[Zn+2]` [zinc acetate]: in data set [7] (setting [16]), the “mean Cu^64 uptake” value was 0.82 % of the administered dose and the mean copper balance was -0.44 mg/day. In data set [7] (once daily dosing of immediate release capsules), the control of copper entry is “does not provide adequate control of copper”. Further, in [9], the stomach irritability is recorded as ~10 % of patients.

For the compound `[Zn]` [zinc], the “copper balance induced, average” value in data set [7] (Wilson's patients, from the two week point) is −0.35 mg daily. Moreover, in data set [7] (Wilson's patients), the “time to achieve intestinal metallothionein induction and a negative copper balance” value was “approximately two”. Further, the “time to bring urine copper and nonceruloplasmin plasma copper down to subtoxic levels” value in [7] (zinc therapy) is listed as “six”.

As for copper acetate, in data set [10], the “oral dose absorbed from the gastrointestinal tract” value is listed as “about 65%” and the “oral dose absorbed from the gastrointestinal tract, range” value is reported as 15-97%.
